Data as given in patent EP0447704A1, “N-Acylated azacyclic compounds, processes for their preparations and their use as medications” (Smithkline Beecham Farmaceutici S.p.A., priority 1990, dated 1991).
Counter-ions that a name gives are not always drawn.

What was measured:
mice [1] = assay: Tail-flick test in mice; format: in vivo, Male Charles River mice (Swiss Strain); settings: for ANALGESIA M. TAIL-FLICK (QUANTAL) ED50 / ED50: subcutaneous, 30 min pretreatment, quantal protection, limits in brackets; for ANALGESIA M. TAIL-FLICK (QUANTAL) ED50: 30 min; for ED50: Mus musculus, 0.5 h, read-out: ANALGESIA M. TAIL-FLICK (QUANTAL) ED50; for M. TAIL-FLICK (QUANTAL) % protection: at 10 mg
Method: B) Tail-flick test in mice
The methodology employed is based on that described by D'Amour and Smith, J. Pharmacol. Exp. Ther. 72, 74/1941.
Male Charles River mice (Swiss Strain), 22-34g body weight were used. Animals were allowed food and water ad libitum and were randomized into groups of 10 prior to experimentation.
Test compounds were dissolved in either distilled water or distilled water plus 0.1 M AMS and administered by the subcutaneous route in a final volume of 10 ml/Kg. Control animals received 10 ml/kg of the appropriate vehicle alone. Following a pretreatment period of 30 min., the mice were again placed under the heat source and the reaction tine re-determined.
Percentage quantal protection was determined as the number of mice in which the reaction time was doubled compared to pretreatment values, expressed as a percentage of the total number of mice in the group.

mice [2] = assay: p-phenylquinone-induced abdominal writhing test in mice; format: in vivo, Male Charles River mice (Swiss Strain); settings: subcutaneous, 20 min pretreatment, graded protection, limits in brackets; for ED50: Mus musculus, sc, 20 min, read-out: ANALGESIA M. WRITHING (GRADED) ED50
Method: A) p-phenylquinone-induced abdominal writhing test in mice
The methodology employed is based on that described by Sigmund et al, Proc. Soc. Exptl. Biol. 95, 729/1957, modified by Milne and Twomey, Agents and Actions, 10, 31/1980.
Male Charles River mice (Swiss Strain), 25-36g body weight, were used. Animals were allowed food and water ad libitum and were randomized into groups of 10 prior to experimentation. Test compounds were dissolved in either distilled water or distilled water plus 0.1 M AMS, and administered by the subcutaneous route in a final volume of 10 ml/Kg. Control animals received 10 ml/Kg of the appropriate vehicle alone. Following a pretreatment period of 20 min., mice were injected intraperitoneally with p-phenylquinone, 2 mg/Kg at 37 °C in a final volume of […]. […] During this period the number of abdominal writhing responses per animal were recorded where writhing consists of an intermittent contraction of the abdomen associated with hind leg extension.
The degree of antinociceptive protection afforded by the test compound was determined as the mean number of writhing responses observed in the treated group (T) expressed as a percentage of the mean number of writhing responses in the control group (C) according to the following formula: [1-(T/C]x100% = % graded protection

`CC1CCCN(C(=O)Cc2ccc(Cl)c(Cl)c2)C1CN1CCCC1` (single isomer, unassigned) [Example 1, 1-(3,4-dichlorophenyl)acetyl-2-(pyrrolidin-1-yl)methyl-3-methyl piperidine hydrochloride hemihydrate diasteroisomer A] was tested, and the “ANALGESIA M. TAIL-FLICK (QUANTAL) ED50” value (mice [1]) was 0.405 (0.230-0.607) mg/Kg sc.
For `O=C(Cc1ccc(Cl)c(Cl)c1)N1CCCC(O)C1CN1CCCC1` (single isomer, unassigned; diastereoisomer a) [Example 7, 1-(3,4-dichlorophenyl)acetyl-2-(pyrrolidin-1-yl)methyl-3-hydroxy piperidine hydrochloride diastereoisomer A trans], the ED50 (mice [2]) was 0.141 mg/kg, the ED50 (mice [1]; sc) was 0.825 mg/kg and the “DURATION OF ACTION M. TAIL-FLICK (GRADED) % ACTIVITY AT MTFQ ED50 30'” value (mice [1]; dose = mouse tail-flick quantal ED50, 30') was 87%. For the same compound, the “DURATION OF ACTION M. TAIL-FLICK (GRADED) % ACTIVITY AT MTFQ ED50 90'” value (mice [1]; dose = mouse tail-flick quantal ED50, 90') was 39%.
`CC1(C)CCCN(C(=O)Cc2ccc3c(c2)CCCC3=O)C1CN1CCCC1` (stereo not drawn) [Example 13, 1-[1-oxo-3,4-dihydro-(2H)-napht-6-yl]acetyl-2-(pyrrolidin-1-yl)methyl-3,3-dimethyl piperidine] was tested, and the “M. TAIL-FLICK (QUANTAL) % protection” value (mice [1]; sc) was “at 10 mg = 60% protection”.
Work on `CC1(C)CCCN(C(=O)Cc2ccc(C(F)(F)F)cc2)C1CN1CCCC1` (racemic) [Example 10, 1-(4-trifluoromethylphenyl)acetyl-2-(pyrrolidin-1-yl)methyl-3,3-dimethyl piperidine hydrochloride] yielded an ED50 (mice [2]) of 0.023 mg/kg and an ED50 (mice [1]; sc) of 0.116 mg/kg.
With `O=C(Cc1ccc(Cl)c(Cl)c1)N1CCCC(O)C1CN1CCCC1` (single isomer, unassigned; diastereoisomer b) [Example 8, 1-(3,4-dichlorophenyl)acetyl-2-(pyrrolidin-1-yl)methyl-3-hydroxy piperidine hydrochloride diastereoisomer B cis] the “M. TAIL-FLICK (QUANTAL) % protection” value (mice [1]; sc) was “at 10 mg = 20% protection”.
For `CC1CCCC(CN2CCCC2)N1C(=O)Cc1ccc(Cl)c(Cl)c1` (single isomer, unassigned; diastereoisomer a) [Example 6, 1-(3,4-dichlorophenyl)acetyl-2-(pyrrolidin-1-yl)methyl-6-methyl piperidine hydrochloride hemihydrate Diastereoisomer A], the “M. TAIL-FLICK (QUANTAL) % protection at single dose” value (mice [1]; sc, 1.78 mg/Kg) was “(1.78 mg/Kg 60%)”.
`CC1CCCN(C(=O)Cc2ccc(Cl)c(Cl)c2)C1CN1CCCC1` (single isomer, unassigned) [Example 2, 1-(3,4-dichlorophenyl)acetyl-2-(pyrrolidin-1-yl)methyl-3-methyl piperidine hydrochloride diasteroisomer B] was tested, and the “ANALGESIA M. WRITHING (GRADED) ED50” value (mice [2]) was 0.091 (0.075-0.112) mg/Kg sc and the “ANALGESIA M. TAIL-FLICK (QUANTAL) ED50” value (mice [1]) was 0.147 (0.091-0.237) mg/Kg sc.
